According to the NIST ThermoML archive (doi:10.1021/je800463k):
Numbers after ± are expanded uncertainties.

Assay: mn = molality of the nth substance listed, in mol/kg
Conditions: 101 kPa, Liquid; for mass density: Pycnometric method; for electrical conductivity / speed of sound / viscosity: 303.15 K; for electrical conductivity: Frequency=0.001 MHz, Alternating current cell with electrodes; for speed of sound: Frequency=2 MHz

[Mg+2].[O-][Cl+3]([O-])([O-])[O-].[O-][Cl+3]([O-])([O-])[O-] [magnesium perchlorate] + CO
Conditions | mass density [kg/m3]
301.65 K, m1 = 0.0925 | 796.87 ± 4.6
302.7 K, m1 = 0.3228 | 824.56 ± 15
302.75 K, m1 = 0.2872 | 820.44 ± 13
302.75 K, m1 = 2 | 1006.5 ± 72
302.9 K, m1 = 0.078 | 794.53 ± 4
303.05 K, m1 = 0.1673 | 805.22 ± 8.2
303.5 K, m1 = 0.4313 | 838.73 ± 22
303.55 K, m1 = 1.059 | 918.43 ± 48
303.55 K, m1 = 1.717 | 980.32 ± 62
303.9 K, m1 = 0.0542 | 788.92 ± 3.6
304.2 K, m1 = 0.0925 | 794.46 ± 4.8
304.55 K, m1 = 1.395 | 955.29 ± 42
304.85 K, m1 = 0.6444 | 864.55 ± 33
305.45 K, m1 = 0.2872 | 817.88 ± 14
305.5 K, m1 = 0.078 | 792.01 ± 4
305.5 K, m1 = 0.3228 | 821.98 ± 15
305.7 K, m1 = 0.1673 | 802.67 ± 8.3
305.75 K, m1 = 1.059 | 916.49 ± 44
305.95 K, m1 = 0.6444 | 863.6 ± 33
306 K, m1 = 1.717 | 978.23 ± 62
306.55 K, m1 = 0.4313 | 836.04 ± 22
306.6 K, m1 = 0.0542 | 786.39 ± 3.4
306.65 K, m1 = 2 | 1003.3 ± 72
306.8 K, m1 = 0.0925 | 791.94 ± 4.8
306.95 K, m1 = 1.395 | 953.22 ± 42
307.15 K, m1 = 0.078 | 790.37 ± 3.9
307.25 K, m1 = 0.2872 | 816.19 ± 14
307.3 K, m1 = 0.3228 | 820.29 ± 15
307.35 K, m1 = 0.1673 | 801.01 ± 8.3
308 K, m1 = 1.059 | 914.51 ± 51
308.05 K, m1 = 0.6444 | 861.75 ± 33
308.35 K, m1 = 0.0542 | 784.7 ± 2.9
308.45 K, m1 = 1.717 | 976.24 ± 62
308.5 K, m1 = 0.4313 | 834.26 ± 22
309.25 K, m1 = 2 | 1001.1 ± 72
309.3 K, m1 = 1.395 | 951.18 ± 42
309.35 K, m1 = 0.0925 | 789.49 ± 4.8
309.7 K, m1 = 0.078 | 787.95 ± 4
309.9 K, m1 = 0.2872 | 813.69 ± 13
309.95 K, m1 = 0.3228 | 817.77 ± 15
310.85 K, m1 = 1.717 | 974.13 ± 57

Conditions | electrical conductivity [S/m] | speed of sound [m/s] | viscosity [mPa·s]
m1 = 0.0542 | 0.3785 ± 0.0001 | 1094.8 ± 6.4 | 0.5431 ± 0.03
m1 = 0.078 | 0.5625 ± 0.0001 | 1101.6 ± 6.4 | –
m1 = 0.0925 | 0.6223 ± 0.0001 | 1104.6 ± 6.4 | 0.5669 ± 0.031
m1 = 0.1673 | 0.9485 ± 0.0001 | 1114 ± 6.5 | 0.6084 ± 0.033
m1 = 0.2872 | 1.407 ± 0.001 | 1129.8 ± 6.5 | 0.684 ± 0.036
m1 = 0.3228 | 1.534 ± 0.001 | 1133.5 ± 6.6 | 0.7005 ± 0.037
m1 = 0.4313 | 1.913 ± 0.001 | 1147 ± 6.6 | 0.7937 ± 0.041
m1 = 0.6444 | 2.541 ± 0.001 | 1173.3 ± 6.7 | 0.9348 ± 0.047
m1 = 1.059 | 3.367 ± 0.001 | 1217 ± 6.9 | 1.323 ± 0.063
m1 = 1.395 | 3.746 ± 0.001 | 1253.3 ± 7 | 1.732 ± 0.081
m1 = 1.717 | 3.979 ± 0.001 | 1277.6 ± 7.1 | 1.99 ± 0.092
m1 = 2 | 4.1 ± 0.001 | 1301.6 ± 7.2 | 2.362 ± 0.11
